The text below walks through data of PMC8710044 (Biochemical pharmacology, 2021).

One data set concerns the target CYP2C9 (Homo sapiens, UniProt P11712). In words: Relative CYP contribution to hepatic bioactivation and detoxification, CYP2C9. Conditions: for Bioactivation Percent: CYP2C9 contribution to total CLbioact of the NSAID; for Detoxification Percent: CYP2C9 contribution to total CLdetox of the NSAID. In kind it is in vitro ADME.
In the next data set the target is T1, CYP2C8 (Homo sapiens, UniProt P10632).
T1 sequence (P10632 1-490): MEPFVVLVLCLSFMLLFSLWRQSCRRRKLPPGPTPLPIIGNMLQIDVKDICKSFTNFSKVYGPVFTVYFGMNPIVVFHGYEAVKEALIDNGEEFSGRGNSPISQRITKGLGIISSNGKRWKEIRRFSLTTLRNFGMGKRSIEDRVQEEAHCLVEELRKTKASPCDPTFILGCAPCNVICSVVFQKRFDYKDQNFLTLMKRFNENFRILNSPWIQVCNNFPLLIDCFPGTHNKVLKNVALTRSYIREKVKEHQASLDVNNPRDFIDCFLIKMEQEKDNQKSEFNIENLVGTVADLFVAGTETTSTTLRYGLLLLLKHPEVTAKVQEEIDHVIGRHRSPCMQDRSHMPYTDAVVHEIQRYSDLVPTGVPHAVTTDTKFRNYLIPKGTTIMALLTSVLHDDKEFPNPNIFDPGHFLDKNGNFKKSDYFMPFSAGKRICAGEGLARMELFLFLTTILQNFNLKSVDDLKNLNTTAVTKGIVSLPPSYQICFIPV
As to the kind of experiment: Relative CYP contribution to hepatic bioactivation and detoxification, CYP2C8. In kind it is in vitro ADME. To be noted: for Bioactivation Percent: CYP2C8 contribution to total CLbioact of the NSAID; for Detoxification Percent: CYP2C8 contribution to total CLdetox of the NSAID.

A further data set addresses CYP3A4 (Homo sapiens, UniProt P08684). As to the kind of experiment: Relative CYP contribution to hepatic bioactivation and detoxification, CYP3A4. Conditions: for Bioactivation Percent: CYP3A4 contribution to total CLbioact of the NSAID; for Detoxification Percent: CYP3A4 contribution to total CLdetox of the NSAID. The class given is in vitro ADME.
The next data set has as its target CYP2C19 (Homo sapiens, UniProt P33261). As to the kind of experiment: Relative CYP contribution to hepatic bioactivation and detoxification, CYP2C19. Conditions: for Bioactivation Percent: CYP2C19 contribution to total CLbioact of the NSAID; for Detoxification Percent: CYP2C19 contribution to total CLdetox of the NSAID. In kind it is in vitro ADME.
Substrate in data set [1]: O=C(O)COC(=O)Cc1ccccc1Nc1c(Cl)cccc1Cl
In words: Steady-state kinetics of overall NSAID metabolism. In kind it is in vitro ADME, human. Conditions: other: overall metabolism (depletion) by CYP2C8; 95% CI in parentheses; pH 7.4.

Substrate in data set [2]: Cc1cccc(Nc2ccccc2C(=O)O)c1C
As to the kind of experiment: Steady-state kinetics of overall NSAID metabolism. The class given is in vitro ADME, human. To be noted: other: overall metabolism (depletion) by CYP2C8; 95% CI in parentheses; pH 7.4.

Substrate in data set [3]: O=C(O)COC(=O)Cc1ccccc1Nc1c(Cl)cccc1Cl
In words: Steady-state bioactivation kinetics. The class given is in vitro ADME, human. To be noted: other: CYP2C8, 95% CI in parentheses, pH 7.4.

Substrate in data set [4]: Cc1cccc(Nc2ccccc2C(=O)O)c1C
In words: Steady-state bioactivation kinetics. In kind it is in vitro ADME, human. To be noted: other: CYP2C8, path 1, 2, 95% CI in parentheses, pH 7.4.

Substrate in data set [5]: Cc1ccc(Nc2c(F)cccc2Cl)c(CC(=O)O)c1
In words: cells, lysate or membranes named. Conditions: other: CYP2C9; adduct Unk; 95% CI in parentheses; pH 7.4.

Substrate in data set [6]: Cc1c(Cl)cccc1Nc1ccccc1C(=O)O
As to the kind of experiment: cells, lysate or membranes named. Conditions: other: CYP2C9, path 1, 2, 95% CI in parentheses, pH 7.4.

Substrate in data set [7]: O=C(O)COC(=O)Cc1ccccc1Nc1c(Cl)cccc1Cl
As to the kind of experiment: cells, lysate or membranes named. To be noted: other: CYP2C9, 95% CI in parentheses, pH 7.4.

Substrate in data set [8]: Cc1cccc(Nc2ccccc2C(=O)O)c1C
As to the kind of experiment: cells, lysate or membranes named. To be noted: other: CYP2C9, path 1, 2, 95% CI in parentheses, pH 7.4.

Substrate in data set [9]: Cc1ccc(Cl)c(Nc2ccccc2C(=O)O)c1Cl
In words: cells, lysate or membranes named. To be noted: other: CYP2C9; metabolite M9, path 4; 95% CI in parentheses; pH 7.4.

Sequence of CYP2C19 (P33261 whole entry): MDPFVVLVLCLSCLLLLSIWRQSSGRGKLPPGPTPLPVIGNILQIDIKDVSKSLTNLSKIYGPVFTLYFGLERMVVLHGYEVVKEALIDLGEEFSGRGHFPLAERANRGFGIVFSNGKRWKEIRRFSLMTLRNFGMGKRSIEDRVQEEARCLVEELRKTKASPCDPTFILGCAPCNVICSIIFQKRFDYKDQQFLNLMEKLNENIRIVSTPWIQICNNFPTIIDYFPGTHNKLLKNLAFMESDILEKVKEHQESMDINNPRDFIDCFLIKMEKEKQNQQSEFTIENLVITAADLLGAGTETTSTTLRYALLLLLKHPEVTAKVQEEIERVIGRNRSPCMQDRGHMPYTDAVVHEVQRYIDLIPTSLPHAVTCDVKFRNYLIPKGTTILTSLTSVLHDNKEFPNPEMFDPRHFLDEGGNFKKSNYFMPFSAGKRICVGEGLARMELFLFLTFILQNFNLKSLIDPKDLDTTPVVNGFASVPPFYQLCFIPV
Sequence of CYP3A4 (P08684 whole entry): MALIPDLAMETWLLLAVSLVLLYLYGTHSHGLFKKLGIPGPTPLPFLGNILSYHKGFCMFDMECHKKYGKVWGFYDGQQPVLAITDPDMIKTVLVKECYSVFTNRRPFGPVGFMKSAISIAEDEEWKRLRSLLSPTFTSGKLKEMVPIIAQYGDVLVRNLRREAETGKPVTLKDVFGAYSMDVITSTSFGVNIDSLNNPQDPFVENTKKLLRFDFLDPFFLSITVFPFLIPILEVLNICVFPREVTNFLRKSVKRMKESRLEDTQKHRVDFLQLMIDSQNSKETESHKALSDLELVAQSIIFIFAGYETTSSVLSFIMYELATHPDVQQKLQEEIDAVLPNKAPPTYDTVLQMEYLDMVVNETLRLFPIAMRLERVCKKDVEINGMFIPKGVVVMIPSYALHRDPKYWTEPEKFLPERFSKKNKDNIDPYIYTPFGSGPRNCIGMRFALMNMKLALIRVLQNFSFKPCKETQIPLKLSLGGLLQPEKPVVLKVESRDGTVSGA

For `O=C(O)COC(=O)Cc1ccccc1Nc1c(Cl)cccc1Cl` [ACE, aceclofenac], the “Bioactivation Percent” value on CYP2C9 was found to be 94.3%; at CYP2C8, 2.5%; at CYP3A4, 1.2%; on CYP2C19, 2.0%. The “Detoxification Percent” value came to 30.7% on CYP2C9, 7.3% on CYP2C8, 60.4% on CYP3A4 and 1.6% at CYP2C19.
As for `Cc1cccc(Nc2ccccc2C(=O)O)c1C` [MEF, mefenamic acid], the “Bioactivation Percent” value on CYP2C9 is 91.4%; on CYP2C8, 1.4%; on CYP3A4, 6.0%; at CYP2C19 it was 1.2%. Also, the “Detoxification Percent” value on CYP2C9 turned out to be 36.9%; on CYP2C8, 4.6%; on CYP3A4, 56.4%; at CYP2C19, 2.1%.
Turning to `O=C(O)c1ccccc1Nc1cccc(C(F)(F)F)c1` [FLU, flufenamic acid], the entries for the “Bioactivation Percent” value at CYP2C9, on CYP3A4 and on CYP2C19 were 42.3%, 55.9% and 1.7%, respectively. For the same molecule, the “Detoxification Percent” value on CYP2C9 is given as 27.6%; on CYP3A4, 69.0%; on CYP2C19, 3.4%.
Take `Cc1c(Cl)cccc1Nc1ccccc1C(=O)O` [TOL, tolfenamic acid]: the “Bioactivation Percent” value worked out at 72.8% on CYP2C9, 25.2% at CYP3A4 and 2.0% on CYP2C19. Besides, the “Detoxification Percent” value on CYP2C9 was 35.5%; on CYP3A4 it was 60.9%; at CYP2C19, 3.6%.
With `Cc1ccc(Nc2c(F)cccc2Cl)c(CC(=O)O)c1` [LUM, lumiracoxib], the “Bioactivation Percent” value at CYP2C9 is on record as 95.8%; on CYP3A4, 3.7%; on CYP2C19, 0.5%. Further, the results for the “Detoxification Percent” value at CYP2C9, on CYP3A4 and at CYP2C19 were 23.4%, 68.0% and 8.6%, respectively.
Take `Cc1ccc(Cl)c(Nc2ccccc2C(=O)O)c1Cl` [MEC, meclofenamic acid]: the figures for the “Bioactivation Percent” value at CYP2C9, on CYP3A4 and at CYP2C19 were 55.7%, 24.7% and 19.6%, respectively. For the same molecule, the “Detoxification Percent” value is on record as 36.5% at CYP2C9, 61.6% on CYP3A4 and 1.9% on CYP2C19.

B1: CYP2C8 (Homo sapiens) (protein)
chain: MEPFVVLVLCLSFMLLFSLWRQSCRRRKLPPGPTPLPIIGNMLQIDVKDICKSFTNFSKVYGPVFTVYFGMNPIVVFHGYEAVKEALIDNGEEFSGRGNSPISQRITKGLGIISSNGKRWKEIRRFSLTTLRNFGMGKRSIEDRVQEEAHCLVEELRKTKASPCDPTFILGCAPCNVICSVVFQKRFDYKDQNFLTLMKRFNENFRILNSPWIQVCNNFPLLIDCFPGTHNKVLKNVALTRSYIREKVKEHQASLDVNNPRDFIDCFLIKMEQEKDNQKSEFNIENLVGTVADLFVAGTETTSTTLRYGLLLLLKHPEVTAKVQEEIDHVIGRHRSPCMQDRSHMPYTDAVVHEIQRYSDLVPTGVPHAVTTDTKFRNYLIPKGTTIMALLTSVLHDDKEFPNPNIFDPGHFLDKNGNFKKSDYFMPFSAGKRICAGEGLARMELFLFLTTILQNFNLKSVDDLKNLNTTAVTKGIVSLPPSYQICFIPV
Take B1: the Km in data set [1] was 110 (96–130) μM; in [2], 160 (140–190) μM; in [3] (metabolite M2/M4, path 1, 2) it was 6.3 µM; in [3] (metabolite M6, path 3), 9.4 µM; in data set [3] (metabolite M9, path 4), 6.7 µM; in [4] (metabolite M2/M4a), 51.9 µM. Moreover, the Km in data set [4] (metabolite M2/M4b) stood at 75.6 µM. Moreover, the kcat in [1] was 1740 (1640–1850) pmol/min/nmol protein; in data set [2] it was 2390 (2230–2560) pmol/min/nmol protein; in data set [3] (metabolite M2/M4, path 1, 2), 1.4 (1.3–1.5) pmol/min/nmol protein; in data set [3] (metabolite M6, path 3), 4.0 (3.9–4.1) pmol/min/nmol protein; in data set [3] (metabolite M9, path 4) it was 1.7 (1.6–1.8) pmol/min/nmol protein; in data set [4] (metabolite M2/M4a), 5.6 (5.5–5.8) pmol/min/nmol protein. For the same molecule, the kcat in data set [4] (metabolite M2/M4b) is on record as 5.4 (5.2–5.5) pmol/min/nmol protein.

B2: CYP2C9 (Homo sapiens) (protein)
chain: MDSLVVLVLCLSCLLLLSLWRQSSGRGKLPPGPTPLPVIGNILQIGIKDISKSLTNLSKVYGPVFTLYFGLKPIVVLHGYEAVKEALIDLGEEFSGRGIFPLAERANRGFGIVFSNGKKWKEIRRFSLMTLRNFGMGKRSIEDRVQEEARCLVEELRKTKASPCDPTFILGCAPCNVICSIIFHKRFDYKDQQFLNLMEKLNENIKILSSPWIQICNNFSPIIDYFPGTHNKLLKNVAFMKSYILEKVKEHQESMDMNNPQDFIDCFLMKMEKEKHNQPSEFTIESLENTAVDLFGAGTETTSTTLRYALLLLLKHPEVTAKVQEEIERVIGRNRSPCMQDRSHMPYTDAVVHEVQRYIDLLPTSLPHAVTCDIKFRNYLIPKGTTILISLTSVLHDNKEFPNPEMFDPHHFLDEGGNFKKSKYFMPFSAGKRICVGEALAGMELFLFLTSILQNFNLKSLVDPKNLDTTPVVNGFASVPPFYQLCFIPV
Consider B2, for which the Km in data set [5] is listed as 27.0 (22.4–32.3) μM; in data set [6] (metabolite M2/M4a), 6.5 (5.2–8.0) μM; in [6] (metabolite M2/M4b) it was 6.9 (5.8–8.8) μM; in data set [7] (adduct Unk) it was 7.9 (5.8–10.7) μM; in [7] (metabolite M9, path 4), 23.8 (19.4–28.9) μM; in data set [8] (metabolite M2/M4a) it was 17.5 (13.4–22.7) μM. Also, the Km in data set [8] (metabolite M2/M4b) is recorded as 12.9 (10.1–16.5) μM; in data set [9], 5.5 (4.3–7.1) μM. Also, the kcat in data set [5] was 23.5 (22.5–24.5) pmol/min/nmol protein; in [6] (metabolite M2/M4a), 15.2 (14.6–15.9) pmol/min/nmol protein; in data set [6] (metabolite M2/M4b), 16.1 (15.6–16.7) pmol/min/nmol protein; in data set [7] (adduct Unk) it was 10.2 (9.7–10.9) pmol/min/nmol protein; in data set [7] (metabolite M9, path 4), 68.5 (65.0–72.2) pmol/min/nmol protein; in data set [8] (metabolite M2/M4a), 25.6 (24.2–27.0) pmol/min/nmol protein. The kcat in data set [8] (metabolite M2/M4b) was 35.7 (34.0–37.4) pmol/min/nmol protein; in data set [9], 5.2 (5.0–5.4) pmol/min/nmol protein.
